The results in this text go back to patent US12091425B2 (AMGEN INC., priority 2016, dated 2024).

For assay [1], the target named is T1, Mcl-1/Bim interaction, recombinant human Mcl-1 (171-327) (Homo sapiens, UniProt Q07820).
T1 construct: made in house
The assay can be described thus: Cell free Mcl-1: Bim Affinity Assay (Mcl-1 HTRF). The assay is classed as binding. An outline of the steps:
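Compounds were mixed with the protein and a biotinylated Bim peptide spanning human residues 51-76. Plates were left overnight, then TR-FRET signal was measured. A four-parameter sigmoidal model applied to duplicate competition data gave IC50.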

Assay [2] relates to OPM-2 human multiple myeloma cell line. The assay can be described thus: Cell Viability Assay (OPM-2 10 FBS). It is filed as cell-based. The settings on record: OPM-2 cells, CellTiter-Glo. A digest of the protocol:
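IC50 from 4-parameter logistic fit of CellTiter-Glo luminescence. 3000 cells/well, 10% FBS medium, serial compound dilutions, 16 h, 37 °C/5% CO2; read 25 min post-reagent.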

The mark [3] stands for this setting: TR-FRET, 0.1 nM Mcl-1 (171-327), 0.05 nM biotin-Bim (51-76).
The mark [4] stands for this setting: Homo sapiens, OPM-2, 16 h, 16 h.
[5] abbreviates: cell free Mcl-1:Bim TR-FRET, recombinant human Mcl-1 (171-327).

T1 sequence (Q07820 171-327): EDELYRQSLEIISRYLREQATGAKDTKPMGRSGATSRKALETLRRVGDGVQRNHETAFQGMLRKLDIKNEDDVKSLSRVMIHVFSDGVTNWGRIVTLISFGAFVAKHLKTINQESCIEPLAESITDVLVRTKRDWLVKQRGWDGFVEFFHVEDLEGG

Take `COCCO[C@H]1/C=C/C[C@@H]2COC[C@H]2S(=O)(=O)NC(=O)c2ccc3c(c2)N(C[C@@H]2CC[C@H]21)C[C@@]1(CCCc2cc(Cl)ccc21)CO3` (single isomer, unassigned) [Example 1033]: the IC50 in assay [1] (setting [3]) is 0.366 nM; in assay [2] (16 h incubation), 205 nM.

With `CCOC[C@@H]1[C@@H](C)C/C=C/[C@H](OC)[C@@H]2CC[C@H]2CN2C[C@@]3(CCCc4cc(Cl)ccc43)COc3ccc(cc32)C(=O)NS1(=O)=O` (single isomer, unassigned) [Example 469], the figures for the IC50 in assay [1] (setting [3]) and in assay [2] (16 h) were 0.973 nM and 334 nM, respectively.

For `C[C@@H]1[C@@H](C)C/C=C/[C@H](OCc2ncccn2)[C@@H]2CC[C@H]2CN2C[C@@]3(CCCc4cc(Cl)ccc43)COc3ccc(cc32)C(=O)NS1(=O)=O` [Example 317, (1S,3′R,6′R,7′S,8′E,11′S,12′R)-6-chloro-11′,12′-dimethyl-7′-(2-pyrimidinylmethoxy)-3,4-dihydro-2H,15′H-spiro[naphthalene-1,22′-[20]oxa[13]thia[1,14]diazatetracyclo[14.7.2.0^3,6.0^19,24]pentacosa [8,16,18,24]tetraen]-15′-one 13′,13′-dioxide], the IC50 is 0.223 nM in assay [1] (setting [3]) and 196 nM in assay [2] (setting [4]).

With `COCC[C@@H]1C[C@@H](C)/C=C/[C@H](OC)[C@@H]2CC[C@H]2CN2C[C@@]3(CCCc4cc(Cl)ccc43)COc3ccc(cc32)C(=O)NS1(=O)=O` (single isomer, unassigned) [Example 484], the IC50 turned out to be 0.331 nM in assay [1] (setting [5]) and 412 nM in assay [2] (16 h).

Regarding `CO[C@H]1/C=C/C[C@@H]2C[C@H]2S(=O)(=O)NC(=O)c2ccc3c(c2)N(C[C@@H]2CC[C@H]21)C[C@@]1(CCCc2cc(Cl)ccc21)CO3` (single isomer, unassigned) [Example 803], the IC50 in assay [1] (setting [5]) amounted to 1.06 nM; in assay [2] (16 h), 804 nM.

Consider `COCC[C@@H]1C[C@H](C)/C=C/[C@H](OC)[C@@H]2CC[C@H]2CN2C[C@@]3(CCCc4cc(Cl)ccc43)COc3ccc(cc32)C(=O)NS1(=O)=O` (single isomer, unassigned) [Example 485], for which the half-inhibitory concentration (IC50) in assay [1] (setting [5]) came out at 0.471 nM; in assay [2] (16 h), 558 nM.

For the compound `O=C1NS(=O)(=O)[C@H]2CCCC(C2)[C@H](O)[C@@H]2CC[C@H]2CN2C[C@@]3(CCCc4cc(Cl)ccc43)COc3ccc1cc32` (single isomer, unassigned) [Example 364], the IC50 in assay [1] (setting [3]) was 3.12 nM; in assay [2] (16 h), 30900 nM.

`CO[C@@H]1C[C@H]2C/C=C/[C@H](OC)[C@@H]3CC[C@H]3CN3C[C@@]4(CCCc5cc(Cl)ccc54)COc4ccc(cc43)C(=O)NS(=O)(=O)[C@@H]2C1` (single isomer, unassigned) [Example 337]: the figures for the IC50 in assay [1] (setting [3]) and in assay [2] (16 h) were 0.705 nM and 383 nM, respectively.

With `CO[C@H]1C/C=C/[C@H](O)[C@@H]2CC[C@H]2CN2C[C@@]3(CCCc4cc(Cl)ccc43)COc3ccc(cc32)C(=O)NS(=O)(=O)[C@@H]1CC1CC1` (single isomer, unassigned) [Example 575], the IC50 in assay [1] (setting [5]) was 3.21 nM; in assay [2] (16 h), 2070 nM.

As for `C[C@@H]1[C@@H](C)C/C=C/[C@H](OCCN2C[C@@H]3C[C@H]2CO3)[C@@H]2CC[C@H]2CN2C[C@@]3(CCCc4cc(Cl)ccc43)COc3ccc(cc32)C(=O)NS1(=O)=O` [Example 520, (1S,3′R,6′R,7′S,8′E,11′S,12′R)-6-chloro-11,12′-dimethyl-7′-(2-((1S,4S)-2-oxa-5-azabicyclo[2.2.1]hept-5-yl)ethoxy)-3,4-dihydro-2H,15′H-spiro[naphthalene-1,22′-[20]oxa[13]thia[1,14]diazatetracyclo[14.7.2.0^3,6.0^19,24]pentacosa [8,16,18,24]tetraen]-15′-one 13′,13′-dioxide 2,2,2-trifluoroacetic Acid], the half-maximal inhibitory concentration (IC50) was 0.279 nM in assay [1] (setting [5]) and 142 nM in assay [2] (setting [4]).

Regarding `C[C@H](O)C[C@@H]1CC/C=C/[C@H](O)[C@@H]2CC[C@H]2CN2C[C@@]3(CCCc4cc(Cl)ccc43)COc3ccc(cc32)C(=O)NS1(=O)=O` (single isomer, unassigned) [Example 546], the half-maximal inhibitory concentration (IC50) was 0.28 nM in assay [1] (setting [5]) and 854 nM in assay [2] (16 h).

Take `COCC1C(C)CC=CC(OC)C2CCC2CN2CC3(CCCc4cc(Cl)ccc43)COc3ccc(cc32)C(=O)NS1(=O)=O` (single isomer, unassigned) [Example 460]: the half-inhibitory concentration (IC50) in assay [1] (setting [3]) was 0.334 nM; in assay [2] (setting [4]), 132 nM.

Regarding `C[C@@H]1C/C=C/[C@H](O)[C@@H]2CC[C@H]2CN2C[C@@]3(CCCc4cc(Cl)ccc43)COc3ccc(cc32)C(=O)NS(=O)(=O)N1C[C@H]1CCCO1` [Example 55, (1S,3′R,6′R,7′S,8′E,11R)-6-chloro-7′-hydroxy-11′-methyl-12′-((2R)-tetrahydro-2-furanylmethyl)-3,4-dihydro-2H,15′H-spiro[naphthalene-1,22′-[20]oxa[13]thia[1,12,14]triazatetracyclo[14.7.2.0^3,6.0^19,24]pentacosa[8,16,18,24]tetraen]-15′-one 13′,13′-dioxide], the IC50 in assay [1] (setting [3]) is 6.25 nM; in assay [2] (setting [4]), 2380 nM.

`C[C@@H]1[C@@H](C)C/C=C/[C@H](OCC(=O)N2CCC(O)CC2)[C@@H]2CC[C@H]2CN2C[C@@]3(CCCc4cc(Cl)ccc43)COc3ccc(cc32)C(=O)NS1(=O)=O` [Example 312, (1S,3′R,6′R,7′S,8′E,11′S,12′R)-6-chloro-7′-(2-(4-hydroxy-1-piperidinyl)-2-oxoethoxy)-11′,12′-dimethyl-3,4-dihydro-2H,15′H-spiro[naphthalene-1,22′-[20]oxa[13]thia[1,14]diazatetracyclo[14.7.2.0^3,6.0^19,24]pentacosa [8,16,18,24]tetraen]-15′-one 13′,13′-dioxide]: the IC50 in assay [1] (setting [3]) came to 0.153 nM; in assay [2] (setting [4]) it was 1000 nM.

`CO[C@H]1/C=C/CC[C@@H](CCO)S(=O)(=O)NC(=O)c2ccc3c(c2)N(C[C@@H]2CC[C@H]21)C[C@@]1(CCCc2cc(Cl)ccc21)CO3` (single isomer, unassigned) [Example 617]: the figures for the half-inhibitory concentration (IC50) in assay [1] (setting [5]) and in assay [2] (16 h) were 0.221 nM and 11500 nM, respectively.

Turning to `COCCO[C@H]1/C=C\C[C@H](C)N(CCOC)S(=O)(=O)NC(=O)c2ccc3c(c2)N(C[C@@H]2CC[C@H]21)C[C@@]1(CCCc2cc(Cl)ccc21)CO3` (single isomer, unassigned) [Example 65], the concentration for half-maximal inhibition (IC50) in assay [1] (setting [3]) was found to be 2.38 nM; in assay [2] (setting [4]) it was 1170 nM.

Turning to `C[C@@H]1[C@@H](C)C/C=C/[C@H](OC[C@H]2CCCO2)[C@@H]2CC[C@H]2CN2C[C@@]3(CCCc4cc(Cl)ccc43)COc3ccc(cc32)C(=O)NS1(=O)=O` [Example 510, (1S,3′R,6′R,7′S,8′E,11′S,12′R)-6-chloro-11′,12′-dimethyl-7′-((2R)-tetrahydro-2-furanylmethoxy)-3,4-dihydro-2H,15′H-spiro[naphthalene-1,22′-[20]oxa[13]thia[1,14]diazatetracyclo[14.7.2.0^3,6.0^19,24]pentacosa [8,16,18,24]tetraen]-15′-one 13′,13′-dioxide], the IC50 in assay [1] (setting [5]) was 1.25 nM; in assay [2] (setting [4]) it was 587 nM.

`CC1C=CC(O)C2CCC2CN2CC3(CCCc4cc(Cl)ccc43)COc3ccc(cc32)C(=O)NS(=O)(=O)C1` (single isomer, unassigned) [Example 165]: the half-maximal inhibitory concentration (IC50) in assay [1] (setting [3]) is 3.8 nM; in assay [2] (setting [4]) it was 25000 nM.

Take `CCN1CC/C=C/[C@H](OCc2cscn2)[C@@H]2CC[C@H]2CN2C[C@@]3(CCCc4cc(Cl)ccc43)COc3ccc(cc32)C(=O)NS1(=O)=O` [Example 88, (1S,3′R,6′R,7′S,8′E)-6-chloro-12′-ethyl-7′-(1,3-thiazol-4-ylmethoxy)-3,4-dihydro-2H,15′H-spiro[naphthalene-1,22′-[20]oxa[13]thia[1,12,14]triazatetracyclo[14.7.2.0^3,6.0^19,24]pentacosa[8,16,18,24]tetraen]-15′-one 13′,13′-dioxide]: the IC50 was determined as 1.71 nM in assay [1] (setting [3]) and 1040 nM in assay [2] (setting [4]).

Regarding `COCCCO[C@H]1/C=C/C[C@H](C)N(CCCOC)S(=O)(=O)NC(=O)c2ccc3c(c2)N(C[C@@H]2CC[C@H]21)C[C@@]1(CCCc2cc(Cl)ccc21)CO3` (single isomer, unassigned) [Example 75], the figures for the IC50 in assay [1] (setting [3]) and in assay [2] (setting [4]) were 1.66 nM and 875 nM, respectively.

For `C[C@@H]1[C@@H](C)C[C@H](CCO)/C=C/[C@@H]2CC[C@H]2CN2C[C@@]3(CCCc4cc(Cl)ccc43)COc3ccc(cc32)C(=O)NS1(=O)=O` [Example 113, (1S,3′R,6′S,7′E,9′R,11′S,12′R)-6-chloro-9′-(2-hydroxyethyl)-11′,12′-dimethyl-3,4-dihydro-2H,15′H-spiro[naphthalene-1,22′-[20]oxa[13]thia[1,14]diazatetracyclo[14.7.2.0^3,6.0^19,24]pentacosa[7,16,18,24]tetraen]-15′-one 13′,13′-dioxide], the IC50 in assay [1] (setting [3]) came out at 0.998 nM; in assay [2] (setting [4]), 1150 nM.

Take `CC[C@@H]1CC/C=C/[C@H](OCCC(=O)N2CCOCC2)[C@@H]2CC[C@H]2CN2C[C@@]3(CCCc4cc(Cl)ccc43)COc3ccc(cc32)C(=O)NS1(=O)=O` [Example 1011, (1S,3′R,6′R,7′S,8′E,12′R)-6-chloro-12′-ethyl-7′-(3-(4-morpholinyl)-3-oxopropoxy)-3,4-dihydro-2H,15′H-spiro[naphthalene-1,22′-[20]oxa[13]thia[1,14]diazatetracyclo[14.7.2.0^3,6.0^19,24]pentacosa [8,16,18,24]tetraen]-15′-one 13′,13′-dioxide]: the IC50 in assay [1] (setting [3]) is 0.347 nM; in assay [2] (Homo sapiens, OPM-2, 16 h, 16 h incubation) it was 524 nM.

Regarding `O=C1NS(=O)(=O)CCC/C(Br)=C\[C@@H](O)[C@@H]2CC[C@H]2CN2C[C@@]3(CCCc4cc(Cl)ccc43)COc3ccc1cc32` (single isomer, unassigned) [Example 236], the results for the IC50 in assay [1] (setting [3]) and in assay [2] (16 h) were 6.42 nM and 13700 nM, respectively.
